Converted amounts (≈) assume the structure as drawn. Read-outs that look alike come from different tables or passages of the source.
How the values were obtained:
[1] = test system: β-glucuronidase derived from E. Coli; assay: In vitro incubation of Glu A and Glu B with β-glucuronidase; format: in vitro ADME; conditions: for Glucuronide remaining: 500 μM glucuronide, β-glucuronidase, 37° C.; for Stability in control samples without β-glucuronidase: control incubation, no enzyme
Procedure: β-glucuronidase derived from E. Coli, glucurase at a concentration of 5,000 units/ml and bovine serum albumin were obtained from Sigma (St. Louis, Mo.). Glu A and Glu B were incubated at a concentration of 500 μM with β-glucuronidase ([…]) in 100 mM potassium acetate buffer solution in a 0.5 ml filter tube. The incubations were run in triplicate.
To each filter tube, 65 μl of 100 mM potassium acetate buffer, 5 μl of bovine serum albumin, and 100 μl of glucurase were added (100 mM potassium acetate was added to the control wells). The pH was adjusted to either pH 5.0 using 1N potassium hydroxide. 10 μl of 10 mM GluA or GluB were then added and the filter tubes were incubated for 30 minutes, 60 minutes or 18 hours at 37° C. Following incubation 20 μl of acetonitrile was added to the filter tubes and the filter tubes were centrifuged. The resulting filtrate was then analyzed by HPLC.
Glu A (500 μM) and Glu B (500 μM) were incubated with β-glucuronidase at 37° C. in pH 5.0 and pH 7.4 buffers. The pH 7.4 buffer is representative of the in vivo pH range in the GI tract. The results of each treatment are shown in Tables 5 (pH 5.0) and Table 6 (pH 7.4).
Glu A was prepared fresh in these experiments. A time-dependent incubation of Glu A and Glu B was carried out for 2, 4 and 6 hours.

Solubility = format: physicochemical
[2] = Absorption (physicochemical properties)
Stability in DMSO = format: physicochemical; conditions: especially after freezing and thawing

| solubility (Solubility; aqueous media, aqueous buffer, pH 3.0, read-out: Solubility in aqueous media) [µg/mL] | solubility (Solubility; aqueous media, aqueous buffer, pH 7.0, read-out: Solubility in aqueous media) [µg/mL] | solubility (Solubility; aqueous with cosolvent or surfactant or cyclodextrin, 20/80-weight% Tween 80/DI water, read-out: Solubility) [µg/mL] | solubility (Solubility; neat PEG-400, organic solvent or mixture, read-out: Solubility) [µg/mL] | Absorption [2] [cm/s] | Compound | Glucuronide remaining ([1]; pH 5.0, 0 hr) | Glucuronide remaining ([1]; pH 5.0, 0.5 hrs) | Glucuronide remaining ([1]; pH 5.0, 1 hr) | Glucuronide remaining ([1]; pH 7.4, 0 hr) | Glucuronide remaining ([1]; pH 7.4, 2 hrs) | Glucuronide remaining ([1]; pH 7.4, 4 hrs) | Stability in control samples without β-glucuronidase [1] | Glucuronide remaining ([1]; pH 5.0, 18 hrs) [% Glu-A] | Glucuronide remaining ([1]; pH 7.4, 6 hrs) [% Glu-A] | Stability in DMSO (Stability in DMSO) |
| --- | --- | --- | --- | --- | --- | --- | --- | --- | --- | --- | --- | --- | --- | --- | --- |
| – | – | – | – | – | COc1cc2c(cc1OC)-c1nn(C3OC(C(=O)O)C(O)C(O)C3O)c(Nc3cccc(F)c3)c1C2 (stereo in doubt) [Cpd 1-GluB] | 100% Glu-B | 100% Glu-B | 100% Glu-B | 100% Glu-B | 100% Glu-B | 100% Glu-B | stable | – | – | – |
| < 6 | < 2 | 10000 (≈ 30.7 mM) | 7500 (≈ 23.1 mM) | 1.3e-05 | COc1cc2c(cc1OC)-c1n[nH]c(Nc3cccc(F)c3)c1C2 [Compound 1, (6,7-dimethoxy-2,4-dihydro-indeno[1,2-c]pyrazol-3-yl)-(3-fluoro-phenyl)-amine] | – | – | – | – | – | – | – | – | – | – |
| – | – | – | – | – | COc1cc2c(cc1OC)-c1n[nH]c(N(c3cccc(F)c3)[C@H]3O[C@@H](C(=O)O)[C@H](O)[C@@H](O)[C@@H]3O)c1C2 [Cpd 1-GluA] | 100% Glu-A | 60% Glu-A | 34% Glu-A | 100% Glu-A | 67% Glu-A | 48% Glu-A | stable | 0 | 23 | relatively unstable |

Source: patent publication US20080031866A1, “METHOD FOR MODULATING THE PHARMACOKINETICS AND METABOLISM OF A THERAPEUTIC AGENT” (priority 2006, published 2008)
